In article PMC3298571 (Bioorganic & medicinal chemistry, 2012):
Entries after “also recorded” stand apart in the source; their conditions may differ. Marks after values point to notes of the source that are not given here.

Legend:
CB1 receptor [1] = settings: read-out: Ki CB1; cited from earlier work
CB2 receptor = settings: read-out: Ki CB2; cited from earlier work
Male ICR mice [2] = settings: mouse; cited from earlier work
Male ICR mice [3] = settings: mouse; cited from earlier work; remark: listed apart in the source
CB1 receptors = settings: [35S]GTPγS binding assay; cited from earlier work
mice [4] = settings: cited from earlier work
mice [5] = settings: cited from earlier work; remark: listed apart in the source
CB1 receptor [6] = biological target: CB1 receptor (Homo sapiens, UniProt P21554); experiment: [35S]GTPγS binding assay; format: biochemical
Sequence of CB1 receptor (Homo sapiens, UniProt P21554) (P21554 whole entry): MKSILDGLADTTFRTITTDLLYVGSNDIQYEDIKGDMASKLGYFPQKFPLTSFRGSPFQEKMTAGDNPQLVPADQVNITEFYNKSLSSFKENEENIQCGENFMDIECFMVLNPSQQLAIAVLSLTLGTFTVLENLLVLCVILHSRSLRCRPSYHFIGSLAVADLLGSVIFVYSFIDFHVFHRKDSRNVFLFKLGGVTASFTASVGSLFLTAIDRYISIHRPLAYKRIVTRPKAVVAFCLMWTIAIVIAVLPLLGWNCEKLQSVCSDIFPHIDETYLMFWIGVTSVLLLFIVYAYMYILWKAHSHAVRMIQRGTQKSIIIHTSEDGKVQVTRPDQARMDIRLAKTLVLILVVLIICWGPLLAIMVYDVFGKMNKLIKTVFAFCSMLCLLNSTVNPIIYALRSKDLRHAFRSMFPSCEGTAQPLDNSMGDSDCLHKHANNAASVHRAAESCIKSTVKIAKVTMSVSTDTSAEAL

mice [7] = experiment: Rimonabant antagonism of tetrad effects in mice; format: in vivo, mouse; settings: 3 mg/kg rimonabant, 30 mg/kg JWH-415
Male ICR mice [8] = settings: mouse; cited from earlier work; remark: listed apart in the source
Male ICR mice [9] = settings: mouse; cited from earlier work; remark: listed apart in the source

| SMILES | Ki (CB1 receptor [1]) | Ki (CB2 receptor) | ED50 TF (Male ICR mice [2]) | ED50 SA (Male ICR mice [3]) | ED50 RT (Male ICR mice [8]) | also measured |
| --- | --- | --- | --- | --- | --- | --- |
| CCCCCn1c(C)c(C(=O)c2ccc(CC)c3ccccc23)c2ccccc21 [JWH-213] | 1.5 ± 0.2 nM | 0.42 ± 0.05 nM | – | – | – | – |
| Cc1c(C(=O)c2cccc3ccccc23)c2cccc3c2n1[C@H](CN1CCOCC1)CO3 [WIN-55,212-2] | – | – | 0.94^c μmol / kg | 0.23^c μmol / kg | – | – |
| C=C1CC[C@@H]2[C@@H](C1)c1ccc(C(C)(C)CCCCCC)cc1OC2(C)C [JWH-104, deoxy-Δ^9(11)-THC-dimethylheptyl] | 909 nM | – | – | – | – | Efficacy at CB1 receptors (CB1 receptors): low efficacy agonist; Substitution for THC in drug discrimination (mice [4]): did not substitute for THC; Effect of rimonabant on cannabimimetic effects in the battery of mouse tests (mice [5]): blocked by rimonabant |
| CCCn1c(C)c(C(=O)c2ccc(F)c3ccccc23)c2ccccc21 [JWH-415, 2-Methyl-1-propyl-3-(4-fluoro-1-naphthoyl)indole] | – | – | – | – | – | Efficacy at the CB1 receptor (CB1 receptor [6]): low efficacy agonist; Effect of rimonabant on tetrad effects (mice [7]): blocked or partially blocked; also recorded: rimonabant-reversible activity |
| CCCCCn1cc(C(=O)c2cccc3ccccc23)c2ccccc21 [JWH-018, 1-pentyl-3-(1-naphthoyl)indole] | 9 ± 5 nM | 2.9 ± 2.6 nM | 0.09^e μmol / kg | 0.44^e μmol / kg | 1.7^e μmol / kg | – |
| CCCn1c(C)c(C(=O)c2cccc3ccccc23)c2ccccc21 [JWH-015, 1-propyl-2-methyl-3-(1-naphthoyl)indole] | – | – | 84.7^e μmol / kg | 18.7^e μmol / kg | 99.1^e μmol / kg | ED50 RI (Male ICR mice [9]): 87.2^e μmol / kg |
